Reference: patent US12577255B2, “MDM2-based modulators of proteolysis and associated methods of use” (Arvinas Operations, Inc., priority 2015, dated 2026)

Experiments:
p53 = test: Western blot of HCT116 cells, p53 level; assay type: cell-based, human; conditions: Western blot (FIG. 2, FIG. 3)
MDM2 = molecular target: T1, MDM2 (Homo sapiens, UniProt Q00987); test: Western blot of HCT116 cells, MDM2 level; assay type: cell-based; conditions: Western blot (FIG. 2, FIG. 3)
T1 construct: Western blot of HCT116 cells treated with chimeric molecules; endogenous in cells; host or cells: HCT116
T1 sequence (Q00987 whole entry): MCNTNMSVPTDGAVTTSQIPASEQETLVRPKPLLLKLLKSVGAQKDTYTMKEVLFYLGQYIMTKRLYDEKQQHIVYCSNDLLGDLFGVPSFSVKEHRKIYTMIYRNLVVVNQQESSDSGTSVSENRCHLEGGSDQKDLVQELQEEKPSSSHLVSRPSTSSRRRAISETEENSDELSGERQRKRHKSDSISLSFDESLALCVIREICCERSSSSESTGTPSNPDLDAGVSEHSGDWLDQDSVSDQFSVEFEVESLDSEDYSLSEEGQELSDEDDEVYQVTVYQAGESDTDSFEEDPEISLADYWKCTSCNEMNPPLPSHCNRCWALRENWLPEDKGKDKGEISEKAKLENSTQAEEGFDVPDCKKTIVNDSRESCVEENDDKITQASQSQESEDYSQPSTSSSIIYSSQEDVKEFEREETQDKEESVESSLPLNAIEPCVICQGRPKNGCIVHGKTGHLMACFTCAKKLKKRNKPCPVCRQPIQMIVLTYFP

androgen receptor (AR) = molecular target: T2, androgen receptor (AR) (Homo sapiens, UniProt P10275); test: AR ELISA assay (degradation); assay type: cell-based; conditions: VCaP cells, 16 h
T2 construct: detects endogenous levels of total androgen receptor protein; host or cells: VCaP
T2 sequence (P10275 1-920): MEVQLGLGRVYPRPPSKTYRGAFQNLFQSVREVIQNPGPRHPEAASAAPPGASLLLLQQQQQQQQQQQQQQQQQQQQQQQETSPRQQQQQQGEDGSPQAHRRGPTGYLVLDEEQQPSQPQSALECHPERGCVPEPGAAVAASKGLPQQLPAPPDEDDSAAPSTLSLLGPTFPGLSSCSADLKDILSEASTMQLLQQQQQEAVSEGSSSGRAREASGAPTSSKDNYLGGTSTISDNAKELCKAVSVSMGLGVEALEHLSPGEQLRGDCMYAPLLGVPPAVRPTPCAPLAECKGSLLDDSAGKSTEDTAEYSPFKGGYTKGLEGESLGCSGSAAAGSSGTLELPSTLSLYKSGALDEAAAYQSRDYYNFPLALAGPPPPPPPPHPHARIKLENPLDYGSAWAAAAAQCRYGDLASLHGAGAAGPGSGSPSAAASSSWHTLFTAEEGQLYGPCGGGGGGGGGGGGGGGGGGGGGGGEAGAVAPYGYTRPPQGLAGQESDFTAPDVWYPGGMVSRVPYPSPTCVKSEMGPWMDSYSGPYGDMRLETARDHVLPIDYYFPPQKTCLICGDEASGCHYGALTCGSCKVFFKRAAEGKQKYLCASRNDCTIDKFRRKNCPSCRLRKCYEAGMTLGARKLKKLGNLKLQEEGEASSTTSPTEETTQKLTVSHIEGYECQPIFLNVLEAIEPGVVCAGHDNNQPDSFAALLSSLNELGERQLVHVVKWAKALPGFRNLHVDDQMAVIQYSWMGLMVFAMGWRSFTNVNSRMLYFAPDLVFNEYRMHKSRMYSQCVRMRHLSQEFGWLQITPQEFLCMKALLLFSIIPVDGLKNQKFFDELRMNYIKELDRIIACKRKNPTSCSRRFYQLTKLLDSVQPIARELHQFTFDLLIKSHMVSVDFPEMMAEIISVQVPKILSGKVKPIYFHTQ
Experimental: The following biological assays were performed to evaluate the protein degradation in various cell types using representative compounds disclosed. The degradation of the following proteins were evaluated: bromodomain-containing protein 4 (BRD4), androgen receptor (AR), c-Myc, c-Jun N-terminal kinases (JNK), and enhancer of zeste homolog 2 (EZH2).
VCaP cells were chased from ATCC and cultured in Dulbecco's Modified Eagle's Medium (ATCC), supplemented with 10% FBS (ATCC) and Penicillin/Streptomycin (Life Technologies). DMSO control and compound treatments (0.0001 μM to 1 μM) were performed in 96-well plates for 16 h. cells were harvested, and lysed with Cell Lysis Buffer (catalog #9803) (20 mM Tris-HCl, pH 7.5, 150 mM NaCl, 1 mM Na2EDTA, 1 mM EGTA, 1% Triton, 2.5 mM sodium pyrophosphate, 1 mM B-glycerophosphate, 1 mM Na3VO4, 1 μg/mL leupeptin. Lysates were clarified at 16,000 g for 10 minutes, and loaded into PathScan AR ELISA (Cell Signaling Catalog #12850). The PathScan Total Androgen Receptor Sanwich ELISA Kit is a solid phase sandwich enzyme-linked immunosorbent assay (ELISA) that detects endogenous levels of total androgen receptor protein. An Androgen Receptor Rabbit mAb has been coated onto the microwells. After incubation with cell lysates, androgen receptor protein is captured by the coated antibody. Following extensive washing, an Androgen receptor Mouse Detection mAbis added to detect the captured androgen receptor protein. Anti-mouse IgG, HRP-linked Antibody is then used to recognize the bound detection antibody. HRP substrate, TMB, is added to develop color. The magnitude of absorbance for the developed color is proportional to the quantity of total androgen receptor protein.

MDM2 up-regulation (MDM2)	AR degradation (%) at 1 µM (androgen receptor (AR)) [%]	Structure (SMILES)	p53 level increase (p53)
no MDM2 up-regulation	–	COc1cc(C(=O)NCCOCCOCCOCC(=O)N[C@H](C(=O)N2C[C@H](O)C[C@H]2C(=O)NCc2ccc(-c3scnc3C)cc2)C(C)(C)C)ccc1NC(=O)[C@H]1N[C@H](CC(C)(C)C)[C@@](C#N)(c2ccc(Cl)cc2F)[C@@H]1c1cccc(Cl)c1F [Compound A1911, (2S,3R,4S,5R)-3-(3-chloro-2-fluorophenyl)-4-(4-chloro-2-fluorophenyl)-4-cyano-5-(2,2-dimethylpropyl)-N-{4-[(2-{2-[2-({[(2S)-1-[(2S,4R)-4-hydroxy-2-({[4-(4-methyl-1,3-thiazol-5-yl)phenyl]methyl}-carbamoyl)pyrrolidin-1-yl]-3,3-dimethyl-1-oxobutan-2-yl]carbamoyl}methoxy)-ethoxy]ethoxy}ethyl)carbamoyl]-2-methoxyphenyl}pyrrolidine-2-carboxamide]	no p53 level increase
no MDM2 up-regulation	–	COc1cc(C(=O)NCCOCCOCCOCCOCC(=O)N[C@H](C(=O)N2C[C@H](O)C[C@H]2C(=O)NCc2ccc(-c3scnc3C)cc2)C(C)(C)C)ccc1NC(=O)[C@H]1N[C@H](CC(C)(C)C)[C@@](C#N)(c2ccc(Cl)cc2F)[C@@H]1c1cccc(Cl)c1F (single isomer, unassigned) [Compound A1897]	no p53 level increase
–	0 to 25	CC(C)(C)C[C@@H]1NC(C(=O)NCCOCCOc2ccc(C(=O)N[C@H]3C(C)(C)[C@H](Oc4ccc(C#N)c(Cl)c4)C3(C)C)cc2)[C@H](c2cccc(Cl)c2F)[C@@]1(C#N)c1ccc(Cl)cc1F (stereo partly drawn) [Compound A1571, 3-(3-chloro-2-fluorophenyl)-4-(4-chloro-2-fluorophenyl)-4-cyano-5-(2,2-dimethylpropyl)-N-{2-[2-(4-{[(1,3-trans)-3-(3-chloro-4-cyanophenoxy)-2,2,4,4-tetramethylcyclobutyl]carbamoyl}phenoxy)ethoxy]ethyl}pyrrolidine-2-carboxamide]	–
up-regulation of MDM2	–	COc1cc(C(=O)NCCOCCOCC(=O)N[C@H](C(=O)N2C[C@H](O)C[C@H]2C(=O)NCc2ccc(-c3scnc3C)cc2)C(C)(C)C)ccc1NC(=O)C1NC(CC(C)(C)C)C(C#N)(c2ccc(Cl)cc2F)C1c1cccc(Cl)c1F (mixture of isomers) [Compound A1877, 3-(3-chloro-2-fluorophenyl)-4-(4-chloro-2-fluorophenyl)-4-cyano-5-(2,2-dimethylpropyl)-N-[4-({2-[2-({[(2S)-1-[(2S,4R)-4-hydroxy-2-({[4-(4-methyl-1,3-thiazol-5-yl)phenyl]methyl}carbamoyl)pyrrolidin-1-yl]-3,3-dimethyl-1-oxobutan-2-yl]carbamoyl}methoxy)ethoxy]ethyl}carbamoyl)-2-methoxyphenyl]pyrrolidine-2-carboxamide]	dose dependent p53 level increase
–	25 to 50	CC(C)(C)C[C@@H]1N[C@@H](C(=O)NCCOCCOCCOCCOCCOc2ccc(C(=O)N[C@H]3C(C)(C)[C@H](Oc4ccc(C#N)c(Cl)c4)C3(C)C)cc2)[C@H](c2cccc(Cl)c2F)[C@@]1(C#N)c1ccc(Cl)cc1F [Compound A1720, (2R,3S,4R,5S)-3-(3-chloro-2-fluorophenyl)-4-(4-chloro-2-fluorophenyl)-4-cyano-5-(2,2-dimethylpropyl)-N-[1-(4-{[(1,3-trans)-3-(3-chloro-4-cyanophenoxy)-2,2,4,4-tetramethylcyclobutyl]carbamoyl}phenyl)-1,4,7,10,13-pentaoxapentadecan-15-yl]pyrrolidine-2-carboxamide]	–
no MDM2 up-regulation	–	COc1cc(C(=O)NCCOCCOCC(=O)N[C@H](C(=O)N2C[C@H](O)C[C@H]2C(=O)NCc2ccc(-c3scnc3C)cc2)C(C)(C)C)ccc1NC(=O)[C@H]1N[C@H](CC(C)(C)C)[C@@](C#N)(c2ccc(Cl)cc2F)[C@@H]1c1cccc(Cl)c1F [Compound A1908]	no p53 level increase
